Laboratory results: patent US7063829B2, “Wasp family protein fragments, and use thereof” (Centre National de la Recherche Scientifique, priority 1999, dated 2006)

Legend:
actin polymerisation = test: Cellular actin polymerisation test with GST-WH2/A beads in cell extracts; type: biochemical, human
Text: The GST-WH2/A protein was absorbed onto 500 nm latex beads (Polyscience Inc., 400 Valley Road, Warrington Pa., USA) following the manufacturers' instructions.
Moreover, the components recruited onto the surface of the beads, are targets for tyrosine kinase signalling pathways. Thanks to this in vitro system, it is now possible to study the conditions necessary for actin polymerisation in cells, a process which up to now has not been accessible to direct experimental manipulation.
The cellular actin polymerisation test of the invention has all these characteristics. Beads measuring 200–500 nm can be produced by absorbing purified GST-WH2/A recombinant protein on their surface. […] The beads are then added to extracts prepared from supernatants of lysed cells in culture. The volume of extract necessary for an experiment is of the order of a few microlitres, reducing the cost of the experiment. These extracts have the advantage that they can be produced in a large quantity and stored for a long period, at −80° C. Before the addition of these beads, a fluorescent actin derivative (commercial actin-rhodamine) is added to the extract to make the actin polymerisation visible by epifluorescence microscopy. The actin polymerisation is observed 15 min after the addition of the beads, resulting in an accumulation of fluorescent actin around the beads. […]

actin cytoskeleton = details: after some years of use; cited from earlier work
[1] = tested on: actin polymerisation on the surface of GST-WA particles; test: Inhibition of actin polymerisation induced by GST-WA protein on particles in HeLa extracts; type: biochemical, human
Procedure: Inhibition of actin polymerisation induced by GST-WA protein: 10 μm polystyrene particles (Polysciences inc.) are covered to saturation with GST-WA protein according to the manufacturer's protocol. The particles are resuspended to 1% solid in PBS (Phosphate Buffer Saline) and stored on ice. To test the independence of the actin polymerisation mechanism induced by GST-WA we prepared three solutions. Each sample contained 15 μl of HeLa extracts (supplemented with ATP, creatine phosphate and actin marked with rhodamine), 0.5 μl of GST-WA particles and 1.5 μl of PBS (A), or 1.5 μl of GST-WA protein at 1 mg/ml (B) or 1.5 μl of GST-PRO protein (PRO corresponding to the fragment delimited by the amino acids situated at positions 235 to 584 of the ActA protein of Listeria monocytogenes) at 1 mg/ml (C). 6 μl of the final mixture of these three solutions were sealed between slide and coverglass. We observed fluorescence (rhodamine actin) around the particles for thirty minutes and measured the intensity of fluorescence on a population of forty beads using a microscope (Leica) and a linear digital camera (Micromax Princeton instrument). The average intensity M (arbitrary unit) was 95,000±13,000 for sample A (positive control). For sample B, M=0±1000, the actin polymerisation on the surface of the particles was inhibited by the addition of GST-WA in solution. […]

Question: With `C=C1[C@@H](C)[C@H]2[C@H](Cc3ccccc3)NC(=O)[C@]23[C@H](OC(C)=O)/C=C/[C@@](C)(O)C(=O)[C@@H](C)C/C=C/[C@H]3[C@@H]1O` [cytochalasin D] as the molecule, how does the “sensitivity of the screening test to known medicaments inhibiting actin polymerisation” value (actin polymerisation) read?
Answer: sensitive

Question: Which “teratogenic properties due to secondary effects on the actin cytoskeleton” value (actin cytoskeleton) does the source give for `CCCC(CCC)C(=O)O` [valproic acid] here?
Answer: teratogenic properties

Question: For latrunculin, which “sensitivity of the screening test to known medicaments inhibiting actin polymerisation” value (actin polymerisation) is on record?
Answer: sensitive

B1: GST-WA: recombinant fusion of GST, WH2/A domain of human WASP (positions 404-502, SEQ ID NO: 4) and myc9E10 epitope (protein)
chain: PSSGNGPAPPPLPPALVPAGGLAPGGGRGALLDQIRQGIQLNKTPGAPESSALQPPPQSSEGLVGALMHVMQKRSRAIHSSDEGEDQAGDEDEDDEWDDEQKLISEEDL
modifications: left off: a dimerising Fc or GST
Question: With B1 as the molecule, how does the “average intensity M of fluorescence (rhodamine actin) around the particles” value ([1]; 1.5 μl protein at 1 mg/ml added to 15 μl HeLa extracts + 0.5 μl GST-WA particles (10 μm polystyrene), thirty minutes, forty beads, PBS control (sample A) 95,000±13,000) read?
Answer: 0±1000 arbitrary unit

Question: And the “actin polymerisation on the surface of the particles after addition of the protein in solution” value ([1]; protein at 1 mg/ml in solution, HeLa extracts, GST-WA particles)?
Answer: inhibited
